One data set concerns STZ-NASH mouse model. Kind of data set: In vivo drug efficacy in STZ-NASH mouse model. Details: species or system C57BL/6 mice. To be noted: STZ-NASH mice, 20 nmol/kg SC every two days, 5 weeks, endpoint. On the procedure:
Drug efficacy of the assay substance in the NASH model induced by streptozotocin (STZ)+high-fat diet (HFD) in C57BL/6 mice was verified.
Modeling method: Newborn mice were subcutaneously injected with STZ (200 μg/mouse) within 48 hours after birth. After 4 weeks of breastfeeding, animals with a fasting blood glucose level of >12 mmol/L were selected and subjected to a HFD feeding for 6 consecutive weeks to finally establish the NASH model. Another 8 animals were selected without STZ injection and HFD feeding (normal control group).
Administration scheme: Administration was started after one week of HFD feeding, and the first day of administration was set as Day 1. Then, the mice were subcutaneously injected every two days for 5 consecutive weeks.
Detection at the endpoint of the assay: Pathological hematoxylin-eosin staining and picro sirius red staining were performed.

The test system of another data set is human plasma albumin. Briefly: Plasma protein binding (PPB), human. The class given is in vitro ADME. Set-up: key: NA indicates that the plasma protein binding is too high, and no free drug is detected at a normal plasma protein concentration. To be noted: ultracentrifugation. The procedure: The binding degree of the assay compound to human/mouse plasma albumin was studied.
1. Matrix preparation: on the day of the assay, plasma was thawed in cold water and centrifuged at 3220 rpm for 5 min to remove all clots. The pH of the resulting plasma was measured and adjusted to 7.4±0.1 using 1% phosphoric acid or IN sodium hydroxide as needed.
2. Dilution procedure for the assay compound: the assay compound was dissolved in dimethyl sulfoxide (DMSO) to prepare stock solutions with concentrations of 10 mM and 2 mM, respectively. A 40 μM working solution was prepared by diluting 2 μL of stock solution (2 mM) with 98 μL of DMSO. A 400 μM working solution of the control compound was prepared by diluting 10 μL of stock solution with 240 μL of DMSO. The working solution of the compound (5 μL) was mixed well with a blank matrix (995 μL) at a ratio of 1:200 to prepare a loading matrix.
3.1 An equal volume of 30 μL of loading matrix (n=2) was transferred to a sample collection plate to prepare a time 0 (T0) sample for residue determination. […]
3.4 At the end of centrifugation, 30 μL of protein-free samples and 30 μL of T samples were transferred from the second layer of the supernatant (below the top layer) to a new sample collection plate. […] The mixture was centrifuged at 4000 rpm for 20 min and 100 μL of supernatant from each sample was analyzed by LC-MS/MS.

A further data set addresses T1, GLP-1R (Homo sapiens, UniProt P43220).
T1 construct: host or cells: HEK293
Kind of data set: In vitro agonistic activity on GLP-1R (cAMP assay). It is filed as cell-based. To be noted: HEK293 cell line; for Agonistic activity on GLP-1R Max Activity (%): Max Dose 20 nM. The procedure: The cell lines were constructed by Shanghai WuXi AppTec.
The compounds to be assayed were serially diluted 4-fold with Bravo to obtain 10 concentrations, with a starting concentration of 30 μM.
1) 100 nL of the compound was transferred to an OptiPlate-384 plate using Echo.
2) The OptiPlate-384 plate was centrifuged at 1000 rpm for 5 seconds.
1) A GLP-1R/GIPR/GCGR cell cryopreservation tube was quickly placed in warm water at 37° C. to thaw.
2) The cell suspension was transferred to a 15 mL centrifuge tube, and gently washed with 10 ml of HBSS.
3) The centrifuge tube was centrifuged at 1000 rpm at room temperature for 1 minute.
4) The supernatant was discarded.
5) The cells at the bottom were gently dispersed and gently washed with 10 ml of HBSS. The cells were centrifuged and sedimented, and finally resuspended with the assay buffer.
6) Vi-cell was used to measure the cell density and viability.
7) The concentration of GLP-1R/GIPR/GCGR cells was diluted to 2.0*105/mL with the assay buffer.
8) […] of the diluted cell suspension was transferred to the OptiPlate-384 plate.
9) The plate was incubated at room temperature for 30 minutes.
1) 10 μL of 800 nM gradient diluted cAMP standard was added into an empty well of the OptiPlate-384 plate.
2) 10 μL of cAMP assay reagent was added.
3) The OptiPlate-384 plate was covered with a TopSeal-A film and incubated at room temperature for 60 minutes.
The TopSeal-A was peeled off and the plate was read on the EnVision.
For orientation: Changes in cAMP serve as a functional read-out for many G protein-coupled receptors.

In a further data set the test system is DIO mice. Kind of data set: Drug efficacy study in DIO mice (weight loss). It is filed as in vivo. To be noted: 10 nmol/kg subcutaneous, once every three days. On the procedure: The weight loss effect of the assay compound in DIO mice was studied.
1. After arriving at the facility, the DIO mice were raised in an animal breeding room with strictly controlled environmental conditions. The temperature in the breeding room was maintained at 20 to 24° C., and the humidity was maintained at 30 to 70%. The temperature and humidity in the breeding room were monitored in real time using a thermo-hygrometer, and the temperature and humidity were recorded twice a day (once in the morning and once in the afternoon). The lighting in the animal breeding room was controlled by an electronic timed lighting system. The lights were on for 12 hours and off for 12 hours every day (turned on at 7:00 am and turned off at 19:00 pm). During the assay, the animals were raised in individual cages and toys were provided in each cage. During the assay, the animals had free access to food (growth/breeding feed for rats and mice) and water.
2. The animals in each group were subcutaneously injected with a solvent or an assay compound (10 nmol/kg), respectively. The administration time was 9:30 in the morning. The administration frequency was once every three days, and the administration cycle was 21 days.

T1 sequence (P43220 24-463, species assumed): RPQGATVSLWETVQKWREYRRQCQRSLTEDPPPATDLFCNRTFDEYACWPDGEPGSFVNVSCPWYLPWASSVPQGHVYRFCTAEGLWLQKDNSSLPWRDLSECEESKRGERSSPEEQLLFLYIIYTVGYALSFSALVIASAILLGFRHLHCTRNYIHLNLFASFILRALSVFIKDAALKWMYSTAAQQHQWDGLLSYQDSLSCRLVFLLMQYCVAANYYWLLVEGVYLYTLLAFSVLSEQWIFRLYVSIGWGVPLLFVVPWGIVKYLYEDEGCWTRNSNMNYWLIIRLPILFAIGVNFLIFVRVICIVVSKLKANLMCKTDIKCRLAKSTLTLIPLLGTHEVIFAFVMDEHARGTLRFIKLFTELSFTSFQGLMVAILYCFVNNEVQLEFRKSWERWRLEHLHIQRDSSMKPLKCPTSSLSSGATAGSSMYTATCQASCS

One may read the EC50 as the concentration that produces a half-maximal response. `CC(C)C[C@H](NC(=O)[C@H](CC(C)C)NC(=O)[C@H](Cc1c[nH]c2ccccc12)NC(=O)[C@H](CCC(=O)O)NC(=O)[C@@H](NC(=O)[C@H](Cc1ccccc1)NC(=O)[C@H](CCC(=O)O)NC(=O)[C@@H]1CCCCNC(=O)CN(C(=O)COCCOCCNC(=O)COCCOCCNC(=O)CC[C@H](NC(=O)CCCCCCCCCCCCCCCCCCC(=O)O)C(=O)O)CC(=O)NCCCC[C@H](NC(=O)[C@H](CCC(=O)O)NC(=O)[C@H](CC(=O)O)NC(=O)[C@H](CC(C)C)NC(=O)[C@H](Cc2ccc(O)cc2)NC(=O)[C@H](CCCCN)NC(=O)[C@H](CO)NC(=O)[C@H](Cc2ccc(O)cc2)NC(=O)[C@H](CC(=O)O)NC(=O)[C@H](CO)NC(=O)[C@@H](NC(=O)[C@H](Cc2ccccc2)NC(=O)[C@@H](NC(=O)CNC(=O)[C@H](CCC(N)=O)NC(=O)C(C)(C)NC(=O)[C@@H](N)Cc2c[nH]cn2)[C@@H](C)O)[C@@H](C)O)C(=O)N[C@@H](CCCCN)C(=O)N[C@@H](C)C(=O)N1)C(C)C)C(=O)N[C@@H](CCC(=O)O)C(=O)NCC(=O)NCC(=O)N1CCC[C@H]1C(=O)N[C@@H](CO)C(=O)N[C@@H](CO)C(=O)NCC(N)=O` [WX001]: in the data set with STZ-NASH mouse model, the Ballooning score was 0, the “Fibrosis (%)” value was 1.21%, the Inflammation score turned out to be 1.63 and the NAS score turned out to be 2.63. The compound also returned a Steatosis score with STZ-NASH mouse model of 1.0. Further, the “PPB % unbound (human)” value in the data set with human plasma albumin is given as “NA/NA”. For the same compound, at GLP-1R, the midpoint of the response, the EC50, lay at 0.0227 nM and the “Agonistic activity on GLP-1R Max Activity (%)” value was found to be 122.64%. Moreover, the “ΔBody weight % (comparison of the body weight after 21 days with the body weight on day 1)” value in the data set with DIO mice is recorded as −28.91%.

Regarding `CC(C)C[C@H](NC(=O)[C@H](CC(C)C)NC(=O)[C@H](Cc1c[nH]c2ccccc12)NC(=O)[C@@H]1CCCCNC(=O)CN(C(=O)COCCOCCNC(=O)COCCOCCNC(=O)CC[C@H](NC(=O)CCCCCCCCCCCCCCCCCCC(=O)O)C(=O)O)CC(=O)NCCCC[C@H](NC(=O)[C@H](C)NC(=O)[C@H](CCCCN)NC(=O)[C@H](CCCCN)NC(=O)[C@H](CCC(=O)O)NC(=O)[C@H](CC(=O)O)NC(=O)[C@H](CC(C)C)NC(=O)[C@H](Cc2ccc(O)cc2)NC(=O)[C@H](CCCCN)NC(=O)[C@H](CO)NC(=O)[C@H](Cc2ccc(O)cc2)NC(=O)[C@H](CC(=O)O)NC(=O)[C@H](CO)NC(=O)[C@@H](NC(=O)[C@H](Cc2ccccc2)NC(=O)[C@@H](NC(=O)CNC(=O)[C@H](CCC(N)=O)NC(=O)C(C)(C)NC(=O)[C@@H](N)Cc2c[nH]cn2)[C@@H](C)O)[C@@H](C)O)C(=O)N[C@@H](CCC(=O)O)C(=O)N[C@@H](Cc2ccccc2)C(=O)N[C@@H](C(C)C)C(=O)N1)C(=O)N[C@@H](CCC(=O)O)C(=O)NCC(=O)NCC(=O)N1CCC[C@H]1C(=O)N[C@@H](CO)C(=O)N[C@@H](CO)C(=O)NCC(N)=O` [WX004], in the data set with human plasma albumin, the “PPB % unbound (human)” value is recorded as “NA/NA”. In addition, at GLP-1R, the EC50 stood at 0.0446 nM and the “Agonistic activity on GLP-1R Max Activity (%)” value amounted to 85.77%. Moreover, in the data set with DIO mice, the “ΔBody weight % (comparison of the body weight after 21 days with the body weight on day 1)” value was −31.89%.

Source of the values: patent publication US20250326815A1, “STAPLE-CONTAINING POLYPEPTIDES AND APPLICATION THEREOF” (Soter Biopharma Pte. Ltd., priority 2021, published 2025).
